Active and inactive are the calls of the source. The rule behind the calls is not given here.
Experiments:
[1] = test system: KB; test: Growth inhibition of human KB cells at 10 uM after 72 hrs by MTS assay; format: functional; conditions: read-out: GI
[2] = test system: HL-60; test: Induction of apoptosis in human HL60 cells assessed as early apoptotic cells level at 5 uM annexin V-PE and 7-AAD staining based by flow cytometry (reference value: 18.5%); format: functional
[3] = test system: HL-60; test: Induction of cell cycle arrest in human HL60 cells assessed as accumulation at S phase at 10 uM after 48 hrs by propidium iodide staining based flow cytometry (reference value: 45%); format: functional
[4] = test system: HL-60; test: Induction of apoptosis in human HL60 cells assessed as intact cells level at 2 uM annexin V-PE and 7-AAD staining based by flow cytometry (reference value: 80.7%); format: functional
[5] = test system: HL-60; test: Induction of apoptosis in human HL60 cells assessed as late apoptosis cells level at 2 uM annexin V-PE and 7-AAD staining based by flow cytometry (reference value: 0.4%); format: functional
[6] = Growth inhibition of human HCT116 cells at 10 uM after 72 hrs by MTS assay; format: functional; conditions: HCT-116, 72 h, read-out: GI
[7] = test system: HL-60; test: Induction of cell cycle arrest in human HL60 cells assessed as accumulation at subG1 phase at 2 uM after 48 hrs by propidium iodide staining based flow cytometry (reference value: 0.5%); format: functional
[8] = Growth inhibition of human HL60 cells at 10 uM after 72 hrs by MTS assay; format: functional; conditions: HL-60, 72 h, read-out: GI
[9] = test system: HL-60; test: Induction of cell cycle arrest in human HL60 cells assessed as accumulation at subG1 phase at 5 uM after 48 hrs by propidium iodide staining based flow cytometry (reference value: 0.5%); format: functional
[10] = test system: HL-60; test: Induction of cell cycle arrest in human HL60 cells assessed as accumulation at G2/M phase at 5 uM after 48 hrs by propidium iodide staining based flow cytometry (reference value: 11.6%); format: functional
[11] = Growth inhibition of human PC3 cells at 10 uM after 72 hrs by MTS assay; format: functional; conditions: PC-3, 72 h, read-out: GI
[12] = test system: HL-60; test: Induction of apoptosis in human HL60 cells assessed as dead cells level at 2 uM annexin V-PE and 7-AAD staining based by flow cytometry (reference value: 0.4%); format: functional
[13] = test system: HL-60; test: Induction of apoptosis in human HL60 cells assessed as early apoptotic cells level at 10 uM annexin V-PE and 7-AAD staining based by flow cytometry (reference value: 18.5%); format: functional
[14] = test system: HL-60; test: Induction of apoptosis in human HL60 cells assessed as late apoptosis cells level at 10 uM annexin V-PE and 7-AAD staining based by flow cytometry (reference value: 0.4%); format: functional
[15] = test system: HL-60; test: Induction of apoptosis in human HL60 cells assessed as dead cells level at 5 uM annexin V-PE and 7-AAD staining based by flow cytometry (reference value: 0.4%); format: functional
[16] = test system: HL-60; test: Induction of cell cycle arrest in human HL60 cells assessed as accumulation at S phase at 5 uM after 48 hrs by propidium iodide staining based flow cytometry (reference value: 45%); format: functional
[17] = test system: HL-60; test: Induction of necrosis in human HL60 cells assessed as total LDH activity at 2 to 10 uM; format: functional, cell-based
[18] = test system: SK-OV-3; test: Growth inhibition of human SKOV3 cells at 10 uM after 72 hrs by MTS assay; format: functional; conditions: SK-OV-3, 72 h, read-out: GI
[19] = test system: HL-60; test: Induction of cell cycle arrest in human HL60 cells assessed as accumulation at G0/G1 phase at 10 uM after 48 hrs by propidium iodide staining based flow cytometry (reference value: 42.9%); format: functional
[20] = test system: HL-60; test: Induction of apoptosis in human HL60 cells assessed as dead cells level at 10 uM annexin V-PE and 7-AAD staining based by flow cytometry (reference value: 0.4%); format: functional
[21] = test system: HL-60; test: Induction of apoptosis in human HL60 cells assessed as intact cells level at 10 uM annexin V-PE and 7-AAD staining based by flow cytometry (reference value: 80.7%); format: functional
[22] = test system: HL-60; test: Induction of cell cycle arrest in human HL60 cells assessed as accumulation at G2/M phase at 2 uM after 48 hrs by propidium iodide staining based flow cytometry (reference value: 11.6%); format: functional
[23] = Growth inhibition of drug resistant human HL60 cells at 10 uM after 72 hrs by MTS assay; format: functional; conditions: HL-60, 72 h, read-out: GI
[24] = test system: HL-60; test: Induction of cell cycle arrest in human HL60 cells assessed as accumulation at S phase at 2 uM after 48 hrs by propidium iodide staining based flow cytometry (reference value: 45%); format: functional
[25] = Growth inhibition of human MCF7/R cells at 10 uM after 72 hrs by MTS assay; format: functional; conditions: MCF7R, read-out: GI
[26] = test system: HL-60; test: Induction of apoptosis in human HL60 cells assessed as caspase-3 activation at 5 uM after 24 to 48 hrs by DEVD-AMC substrate based fluorescence assay; format: functional, cell-based
[27] = test system: HL-60; test: Induction of apoptosis in human HL60 cells assessed as intact cells level at 5 uM annexin V-PE and 7-AAD staining based by flow cytometry (reference value: 80.7%); format: functional
[28] = test system: HL-60; test: Induction of necrosis in intact human HL60 cells assessed as cytosolic LDH release at 2 to 10 uM; format: functional, cell-based
[29] = test system: HL-60; test: Induction of cell cycle arrest in human HL60 cells assessed as accumulation at G0/G1 phase at 5 uM after 48 hrs by propidium iodide staining based flow cytometry (reference value: 42.9%); format: functional
[30] = test system: MCF7; test: Growth inhibition of human MCF7 cells at 10 uM after 72 hrs by MTS assay; format: functional; conditions: MCF7, 72 h, read-out: GI
[31] = test system: HL-60; test: Induction of cell cycle arrest in human HL60 cells assessed as accumulation at G2/M phase at 10 uM after 48 hrs by propidium iodide staining based flow cytometry (reference value: 11.6%); format: functional
[32] = test system: HL-60; test: Induction of apoptosis in human HL60 cells assessed as early apoptotic cells level at 2 uM annexin V-PE and 7-AAD staining based by flow cytometry (reference value: 18.5%); format: functional
[33] = test system: HL-60; test: Induction of apoptosis in human HL60 cells assessed as late apoptosis cells level at 5 uM annexin V-PE and 7-AAD staining based by flow cytometry (reference value: 0.4%); format: functional
[34] = test system: HL-60; test: Induction of cell cycle arrest in human HL60 cells assessed as accumulation at G0/G1 phase at 2 uM after 48 hrs by propidium iodide staining based flow cytometry (reference value: 42.9%); format: functional
[35] = test system: HL-60; test: Induction of cell cycle arrest in human HL60 cells assessed as accumulation at subG1 phase at 10 uM after 48 hrs by propidium iodide staining based flow cytometry (reference value: 0.5%); format: functional

Question: Which results are given for `COC(=O)C1(Cc2ccc(OC)cc2)CC(=O)OC1(C)c1ccccc1` (stereo not given)?
Answer: inhibition of growth at 10 µM [1]: 95%; Activity [2]: 46.4%; Activity [3]: 29.7%; Activity [4]: 61.45%; Activity [5]: 0.65%; inhibition of growth at 10 µM [6]: 61%; Activity [7]: 14.1%; inhibition of growth at 10 µM [8]: 82%; Activity [9]: 38.9%; Activity [10]: 12.2%; inhibition of growth at 10 µM [11]: 68%; Activity [12]: 0.35%; Activity [13]: 53.35%; Activity [14]: 4.25%; Activity [15]: 0.9%; Activity [16]: 25.6%; Activity [17]: Active; inhibition of growth at 10 µM [18]: 76%; Activity [19]: 19.5%; Activity [20]: 1.65%; Activity [21]: 40.7%; Activity [22]: 25.6%; inhibition of growth at 10 µM [23]: 92%; Activity [24]: 24%; inhibition of growth at 10 µM [25]: 82%; Activity [26]: Active; Activity [27]: 50.55%; Activity [28]: inactive; Activity [29]: 23.4%; inhibition of growth at 10 µM [30]: 56%; Activity [31]: 13.1%; Activity [32]: 37.65%; Activity [33]: 2.2%; Activity [34]: 36.3%; Activity [35]: 37.7%
